Test results as given in patent publication US6706663B2, “Herbicidal 3-heterocyclic substituted benzisothiazole and benzisoxazole compounds” (Wyeth, priority 2000, dated 2004).

Columns and labels:
[1] = test system: GLXMAW (Soybean, Williams); experiment: Preemergence herbicidal evaluation; format: in vivo, Glycine max, (L.) Merr. cv Williams; details: preemergence, rated 4-5 weeks after treatment
[2] = test system: ECHORC (Echinochloa oryzoides); experiment: Flooded paddy, preemergence weed control; format: in vivo, Echinochloa oryzoides (Ard.) Fritsch.; details: rated 3-4 weeks after treatment, 0-9 rating scale
Summary of the method: (§1)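 Under paddy conditions, seeds or vegetative propagules go into the top 0.5 cm of silt loam; the soil is then flooded to 1.5–3 cm and kept so. Treated pots stay in a greenhouse; response is rated 0-9 visually versus control.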

[3] = test system: CHEAL (Chenopodium album); experiment: Postemergence herbicidal evaluation; format: in vivo, L.
Summary of the method: (§2)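 Seedlings grown about two weeks in flats, sprayed, then kept under standard greenhouse care. Rated visually 4–5 weeks after treatment on a 0–9 scale (stand, vigour, malformation, size, chlorosis, overall appearance) relative to untreated control; repeat tests averaged.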

[4] = test system: CASOB (Cassia obtusifolia); experiment: Postemergence herbicidal evaluation; format: in vivo, L.
Summary of the method: as §2

[5] = test system: AMBEL (Ambrosia artemisifolia); experiment: Postemergence herbicidal evaluation; format: in vivo, L.
Summary of the method: as §2

[6] = test system: CHEAL (Chenopodium album); experiment: Preemergence herbicidal evaluation; format: in vivo, L.; details: preemergence, rated 4-5 weeks after treatment
Summary of the method: (§3)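 Scores (0–9) reflect visual comparison with control plants for stand, vigor, malformation, size and chlorosis. Seeds in potting soil received a post-planting spray of compound in aqueous acetone and grew in a greenhouse until assessment 4–5 weeks later.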

[7] = test system: CASOB (Cassia obtusifolia); experiment: Preemergence herbicidal evaluation; format: in vivo, L.; details: preemergence, rated 4-5 weeks after treatment
Summary of the method: as §3

[8] = test system: AMBEL (Ambrosia artemisifolia); experiment: Preemergence herbicidal evaluation; format: in vivo, L.; details: preemergence, rated 4-5 weeks after treatment
Summary of the method: as §3

[9] = test system: ABUTH (Abutilon theophrasti); experiment: Postemergence herbicidal evaluation; format: in vivo, Medic.
Summary of the method: as §2

[10] = test system: ECHCG (Echinochloa crus-galli); experiment: Postemergence herbicidal evaluation; format: in vivo, (L.) Beau
Summary of the method: as §2

ZEAMX (Corn, Field) [11] = experiment: Preemergence herbicidal evaluation; format: in vivo, Zea mays, L.; details: preemergence, rated 4-5 weeks after treatment
[12] = test system: IPOHE (Ipomoea hederacea); experiment: Preemergence herbicidal evaluation; format: in vivo, (L.) Jacq.; details: preemergence, rated 4-5 weeks after treatment
GALAP (Galium aparine) [13] = experiment: Postemergence herbicidal evaluation; format: in vivo
Summary of the method: as §2

[14] = test system: IPOHE (Ipomoea hederacea); experiment: Postemergence herbicidal evaluation; format: in vivo, (L.) Jacq.
Summary of the method: as §2

[15] = test system: TRZAWR (Wheat, Winter, cv Riband); experiment: Preemergence herbicidal evaluation; format: in vivo, Triticum aestivum; details: preemergence, rated 4-5 weeks after treatment
Summary of the method: as §3

CYPIR (Cyperus iria) = experiment: Flooded paddy, preemergence weed control; format: in vivo; details: rated 3-4 weeks after treatment, 0-9 rating scale
Summary of the method: as §1

GALAP (Galium aparine) [16] = experiment: Preemergence herbicidal evaluation; format: in vivo; details: preemergence, rated 4-5 weeks after treatment
Summary of the method: as §3

ZEAMX (Corn, Field) [17] = experiment: Postemergence herbicidal evaluation; format: in vivo, Zea mays, L.
Summary of the method: as §2

[18] = test system: GLXMAW (Soybean, Williams); experiment: Postemergence herbicidal evaluation; format: in vivo, Glycine max, (L.) Merr. cv Williams
Summary of the method: as §2

ORYSAT (Rice, Tebonnet) = experiment: Preemergence herbicidal evaluation; format: in vivo, Oryza sativa, (L.) Tebonnet; details: preemergence, rated 4-5 weeks after treatment
[19] = test system: CYPSE (Cyperus serotinus); experiment: Flooded paddy, preemergence weed control; format: in vivo, Rottb.; details: rated 3-4 weeks after treatment, 0-9 rating scale
Summary of the method: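 Seeds or propagules were planted 0.5 cm deep in silt loam and flooded to 1.5–3 cm. Compounds in 50/50 v/v aqueous/acetone were pipetted into the flood water at about 0.0080 to 0.1250 kg/ha. After 3–4 weeks in the greenhouse, effect was rated visually on a 0–9 scale versus untreated control.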

[20] = test system: SAGPY (Sagittaria pygmaea); experiment: Flooded paddy, preemergence weed control; format: in vivo, L.; details: rated 3-4 weeks after treatment, 0-9 rating scale
Summary of the method: as §1

For `Cn1c(C(F)(F)F)cc(=O)n(-c2ccc3snc(-c4cccs4)c3c2)c1=O` [Compound 3, 1-methyl-3-[3-(2-thienyl)-1,2-benzisothiazol-5-yl]-6-(trifluoromethyl)uracil], the “GLXMAW preemergence herbicidal rating” value ([1]; Rate 0.0620 kg/ha) was 5.5, the “GLXMAW preemergence herbicidal rating” value ([1]; Rate 0.1250 kg/ha) was 9.0 and the “GLXMAW preemergence herbicidal rating” value ([1]; Rate 0.2500 kg/ha) was 9.0. The “herbicidal rating, ECHORC” value ([2]; rate 0.0080 kg/ha) was 2.0, the “herbicidal rating, ECHORC” value ([2]; rate 0.0320 kg/ha) was 8.0 and the “herbicidal rating, ECHORC” value ([2]; rate 0.1250 kg/ha) was 9.0. The “Postemergence herbicidal rating, CHEAL” value ([3]; rate 0.0320 kg/ha) was 9.0, the “Postemergence herbicidal rating, CHEAL” value ([3]; rate 0.0620 kg/ha) was 9.0 and the “Postemergence herbicidal rating, CHEAL” value ([3]; rate 0.1250 kg/ha) was 9.0. The “Postemergence herbicidal rating, CASOB” value ([4]; rate 0.0320 kg/ha) was 4.0, the “Postemergence herbicidal rating, CASOB” value ([4]; rate 0.0620 kg/ha) was 5.0 and the “Postemergence herbicidal rating, CASOB” value ([4]; rate 0.1250 kg/ha) was 9.0. The “Postemergence herbicidal rating, AMBEL” value ([5]; rate 0.0320 kg/ha) was 9.0, the “Postemergence herbicidal rating, AMBEL” value ([5]; rate 0.0620 kg/ha) was 9.0 and the “Postemergence herbicidal rating, AMBEL” value ([5]; rate 0.1250 kg/ha) was 9.0. For the same compound, the “CHEAL preemergence herbicidal rating” value ([6]; Rate 0.0620 kg/ha) was 9.0, the “CHEAL preemergence herbicidal rating” value ([6]; Rate 0.1250 kg/ha) was 9.0 and the “CHEAL preemergence herbicidal rating” value ([6]; Rate 0.2500 kg/ha) was 9.0. For the same compound, the “CASOB preemergence herbicidal rating” value ([7]; Rate 0.0620 kg/ha) was 4.0, the “CASOB preemergence herbicidal rating” value ([7]; Rate 0.1250 kg/ha) was 4.5 and the “CASOB preemergence herbicidal rating” value ([7]; Rate 0.2500 kg/ha) was 5.5. The “AMBEL preemergence herbicidal rating” value ([8]; Rate 0.0620 kg/ha) was 8.0, the “AMBEL preemergence herbicidal rating” value ([8]; Rate 0.1250 kg/ha) was 9.0 and the “AMBEL preemergence herbicidal rating” value ([8]; Rate 0.2500 kg/ha) was 9.0. For the same compound, the “Postemergence herbicidal rating, ABUTH” value ([9]; rate 0.0320 kg/ha) was 9.0, the “Postemergence herbicidal rating, ABUTH” value ([9]; rate 0.0620 kg/ha) was 9.0 and the “Postemergence herbicidal rating, ABUTH” value ([9]; rate 0.1250 kg/ha) was 9.0. For the same compound, the “Postemergence herbicidal rating, ECHCG” value ([10]; rate 0.0320 kg/ha) was 2.0, the “Postemergence herbicidal rating, ECHCG” value ([10]; rate 0.0620 kg/ha) was 3.0 and the “Postemergence herbicidal rating, ECHCG” value ([10]; rate 0.1250 kg/ha) was 4.0. For the same compound, the “ZEAMX preemergence herbicidal rating” value (ZEAMX (Corn, Field) [11]; Rate 0.0620 kg/ha) was 6.5, the “ZEAMX preemergence herbicidal rating” value (ZEAMX (Corn, Field) [11]; Rate 0.1250 kg/ha) was 6.5 and the “ZEAMX preemergence herbicidal rating” value (ZEAMX (Corn, Field) [11]; Rate 0.2500 kg/ha) was 7.0. The “IPOHE preemergence herbicidal rating” value ([12]; Rate 0.0620 kg/ha) was 9.0, the “IPOHE preemergence herbicidal rating” value ([12]; Rate 0.1250 kg/ha) was 9.0 and the “IPOHE preemergence herbicidal rating” value ([12]; Rate 0.2500 kg/ha) was 9.0. The “Postemergence herbicidal rating, GALAP” value (GALAP (Galium aparine) [13]; rate 0.0320 kg/ha) was 5.0, the “Postemergence herbicidal rating, GALAP” value (GALAP (Galium aparine) [13]; rate 0.0620 kg/ha) was 4.0 and the “Postemergence herbicidal rating, GALAP” value (GALAP (Galium aparine) [13]; rate 0.1250 kg/ha) was 6.0. For the same compound, the “Postemergence herbicidal rating, IPOHE” value ([14]; rate 0.0320 kg/ha) was 9.0, the “Postemergence herbicidal rating, IPOHE” value ([14]; rate 0.0620 kg/ha) was 9.0 and the “Postemergence herbicidal rating, IPOHE” value ([14]; rate 0.1250 kg/ha) was 9.0. The “TRZAWR preemergence herbicidal rating” value ([15]; Rate 0.0620 kg/ha) was 4.0, the “TRZAWR preemergence herbicidal rating” value ([15]; Rate 0.1250 kg/ha) was 5.0 and the “TRZAWR preemergence herbicidal rating” value ([15]; Rate 0.2500 kg/ha) was 6.0. The “herbicidal rating, CYPIR” value (CYPIR (Cyperus iria); rate 0.0080 kg/ha) was 0.0, the “herbicidal rating, CYPIR” value (CYPIR (Cyperus iria); rate 0.0320 kg/ha) was 8.5 and the “herbicidal rating, CYPIR” value (CYPIR (Cyperus iria); rate 0.1250 kg/ha) was 9.0. For the same compound, the “GALAP preemergence herbicidal rating” value (GALAP (Galium aparine) [16]; Rate 0.0620 kg/ha) was 9.0, the “GALAP preemergence herbicidal rating” value (GALAP (Galium aparine) [16]; Rate 0.1250 kg/ha) was 9.0 and the “GALAP preemergence herbicidal rating” value (GALAP (Galium aparine) [16]; Rate 0.2500 kg/ha) was 9.0. The “Postemergence herbicidal rating, ZEAMX” value (ZEAMX (Corn, Field) [17]; rate 0.0320 kg/ha) was 5.0, the “Postemergence herbicidal rating, ZEAMX” value (ZEAMX (Corn, Field) [17]; rate 0.0620 kg/ha) was 5.5 and the “Postemergence herbicidal rating, ZEAMX” value (ZEAMX (Corn, Field) [17]; rate 0.1250 kg/ha) was 6.5. The “Postemergence herbicidal rating, GLXMAW” value ([18]; rate 0.0320 kg/ha) was 6.0, the “Postemergence herbicidal rating, GLXMAW” value ([18]; rate 0.0620 kg/ha) was 6.5 and the “Postemergence herbicidal rating, GLXMAW” value ([18]; rate 0.1250 kg/ha) was 8.5. For the same compound, the “ORYSAT preemergence herbicidal rating” value (ORYSAT (Rice, Tebonnet); Rate 0.0620 kg/ha) was 6.0, the “ORYSAT preemergence herbicidal rating” value (ORYSAT (Rice, Tebonnet); Rate 0.1250 kg/ha) was 5.0 and the “ORYSAT preemergence herbicidal rating” value (ORYSAT (Rice, Tebonnet); Rate 0.2500 kg/ha) was 5.0. For the same compound, the “herbicidal rating, CYPSE” value ([19]; rate 0.0080 kg/ha) was 0.0, the “herbicidal rating, CYPSE” value ([19]; rate 0.0320 kg/ha) was 6.5 and the “herbicidal rating, CYPSE” value ([19]; rate 0.1250 kg/ha) was 6.5. For the same compound, the “herbicidal rating, SAGPY” value ([20]; rate 0.0080 kg/ha) was 0.0, the “herbicidal rating, SAGPY” value ([20]; rate 0.0320 kg/ha) was 1.0 and the “herbicidal rating, SAGPY” value ([20]; rate 0.1250 kg/ha) was 5.5.
